Results published in publication PMC7311426, “An amphipathic peptide with antibiotic activity against multidrug-resistant Gram-negative bacteria” (Nature Communications, 2020).
Converted amounts (≈) assume the structure as drawn. Where two headings read alike, the source gives them in different places.

What was measured:
Test in all cases: microbe, parasite or virus in culture
S. enterica Typhi = conditions: Salmonella enterica, ATCC14028 / TYPHI, read-out: BMD MIC
Method in brief: (§1)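 Broth microdilution in MHB, 2-fold 12-point series from 128 or 64 down to 0.06 or 0.03 μg mL^−1, 5 × 10^5 CFU mL^−1. Extra runs in CAMHB per CLSI and in MHB with 1% agarose; n ≥ 6.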

P. aeruginosa = conditions: Pseudomonas aeruginosa, mode of 6 replicates
Method in brief: as §1

K. pneumoniae = conditions: Klebsiella pneumoniae
Method in brief: as §1

E. coli = conditions: Escherichia coli
Method in brief: as §1

A. baumannii = conditions: Acinetobacter baumannii, ATCC19636, read-out: BMD MIC, A. baumannii ATCC 19636 type strain; MHB; mode of 6 replicates
Method in brief: as §1

S. aureus = tested on: S. aureus
Method in brief: as §1

[1] = BAA2146, read-out: BMD MIC, K. pneumoniae BAA-2146, MDR, ESBL, NDM-1 pos, MHB, mode of 6 replicates

| Compound | MIC (S. enterica Typhi) [µg/mL] | MIC (P. aeruginosa; ATCC27853, read-out: BMD MIC, P. aeruginosa ATCC 27853 control strain, CAMHB) [µg/mL] | MIC (P. aeruginosa; ATCC27853, read-out: BMD MIC, P. aeruginosa ATCC 27853 control strain, MHB) [µg/mL] | MIC (K. pneumoniae; ATCC13883, read-out: BMD MIC, K. pneumoniae ATCC 13883 type strain (polymyxin/colistin heteroresistant), MHB, mode of 6 replicates) [µg/mL] | MIC (K. pneumoniae; [1]) [µg/mL] | MIC (E. coli; ATCC25922, read-out: BMD MIC, E. coli ATCC 25922 FDA control strain, CAMHB, mode of 6 replicates) [µg/mL] | MIC (E. coli; ATCC25922, read-out: BMD MIC, E. coli ATCC 25922 FDA control strain, MHB, mode of 6 independent biological replicates) [µg/mL] | MIC (E. coli; ATCC700926 / MG1655, read-out: BMD MIC) [µg/mL] | MIC (E. coli; ATCC700928, read-out: BMD MIC, E. coli ATCC 700928 CFT073 UPEC, CAMHB, mode of 6 replicates) [µg/mL] | MIC (E. coli; read-out: BMD MIC) [µg/mL] | MIC (A. baumannii) [µg/mL] | MIC (P. aeruginosa; read-out: BMD MIC, P. aeruginosa FADDI-070, MDR, PmxR, MHB/CAMHB) [µg/mL] | MIC (K. pneumoniae; ATCC13883, read-out: BMD MIC) [µg/mL] | MIC (K. pneumoniae; ATCC700603, read-out: BMD MIC, K. pneumoniae ATCC 700603 (K6), MDR, OXA-2/SHV-18, MHB, mode of 6 replicates) [µg/mL] | BMD MIC (S. aureus; S. aureus ATCC 25923 MSSA, CAMHB, mode of 6 replicates) [µg/mL] | MIC (S. aureus; Staphylococcus aureus, ATCC25923 / MSSA, read-out: BMD MIC) [µg/mL] |
| --- | --- | --- | --- | --- | --- | --- | --- | --- | --- | --- | --- | --- | --- | --- | --- | --- |
| O=C(O)c1cn(C2CC2)c2cc(N3CCNCC3)c(F)cc2c1=O [Ciprofloxacin, ciprofloxacin] | 0.004 (≈ 0.0121 µM) | ≤ 0.25 | 0.5 (≈ 1.51 µM) | ≤ 0.25 | > 64 | ≤ 0.25 | ≤ 0.25 | ≤ 0.25 | ≤ 0.25 | ≤ 0.25 |  |  |  |  |  |  |
| COc1cc(Cc2cnc(N)nc2N)cc(OC)c1OC [Trimethoprim] |  |  |  |  | > 64 |  |  |  |  |  | 16 (≈ 55.1 µM) | 64 (≈ 220 µM) | 1 (≈ 3.44 µM) | 4 (≈ 13.8 µM) | 2 | 2 (≈ 6.89 µM) |
